# Results as given in patent US20040224958A1, “Pyridopyrimidinone derivatives for treatment of neurodegenerative disease” (priority 2000, published 2004).
# Like-named read-outs stand apart in the source and are kept apart here.
# Legend:
# cdk2/cyclinA = cdk2/cyclinA (Homo sapiens, UniProt P24941); assay: Cyclin-Dependent Kinase Assay cdk2/cyclinA
# cdc2/cyclinB = cdc2/cyclinB (Homo sapiens, UniProt P06493); assay: Cyclin-Dependent Kinase Assay cdc2/cyclinB
# Cdk5/p25 = Cdk5/p25 (Homo sapiens, UniProt Q00535); assay: Cyclin-Dependent Kinase 5 High Throughput Screening (cdk5-HTS) Assay; assay type: biochemical; conditions: high throughput screen
# Outline: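 IC50 determined from 33P incorporation into GST-RbCOOH captured on glutathione plates and read by scintillation counting. Reaction: 1.0 μg/mL Cdk5/p25, 20 μM [γ33P]ATP, pH 7.4 Tris buffer with MgCl2 and DTT, 30 min at room temperature, stopped with EDTA.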
# cdk2/cyclinE = cdk2/cyclinE (Homo sapiens, UniProt P24941); assay: Cyclin-Dependent Kinase Assay cdk2/cyclinE
# cdk4/D = cdk4/D (Homo sapiens, UniProt P11802); assay: Cyclin-Dependent Kinase 4 (cdk4) Assay; assay type: biochemical; conditions: read-out: cdk4/D IC50
# cdk4/D, sequence (P11802 whole entry): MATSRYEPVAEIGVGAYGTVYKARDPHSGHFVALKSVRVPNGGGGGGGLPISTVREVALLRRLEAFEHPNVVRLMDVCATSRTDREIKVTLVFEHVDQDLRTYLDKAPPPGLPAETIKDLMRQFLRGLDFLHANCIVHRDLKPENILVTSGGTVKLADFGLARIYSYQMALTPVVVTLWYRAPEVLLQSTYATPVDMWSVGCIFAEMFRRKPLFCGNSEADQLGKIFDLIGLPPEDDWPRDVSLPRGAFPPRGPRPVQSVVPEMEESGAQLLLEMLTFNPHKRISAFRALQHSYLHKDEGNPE
# cdk4/D, sequence (P24385 whole entry, further chain): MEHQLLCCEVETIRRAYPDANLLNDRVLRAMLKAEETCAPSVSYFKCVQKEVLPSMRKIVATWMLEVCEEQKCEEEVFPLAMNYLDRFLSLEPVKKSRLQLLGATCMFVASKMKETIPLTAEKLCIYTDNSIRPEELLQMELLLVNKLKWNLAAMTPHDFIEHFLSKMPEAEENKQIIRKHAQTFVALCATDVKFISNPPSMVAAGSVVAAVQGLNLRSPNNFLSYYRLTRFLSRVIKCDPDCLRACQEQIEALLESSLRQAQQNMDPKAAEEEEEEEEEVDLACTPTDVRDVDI
# cdc2/cyclinB, sequence (P06493 whole entry): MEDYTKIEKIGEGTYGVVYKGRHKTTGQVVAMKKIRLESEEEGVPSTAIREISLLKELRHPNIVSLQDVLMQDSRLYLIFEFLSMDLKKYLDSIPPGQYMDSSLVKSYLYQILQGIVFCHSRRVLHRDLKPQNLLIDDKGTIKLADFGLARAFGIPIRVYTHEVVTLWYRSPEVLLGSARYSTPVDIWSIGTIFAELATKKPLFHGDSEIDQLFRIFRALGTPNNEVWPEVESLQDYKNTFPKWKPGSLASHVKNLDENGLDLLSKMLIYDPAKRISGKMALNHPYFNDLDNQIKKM
# cdc2/cyclinB, sequence (P14635 whole entry, further chain): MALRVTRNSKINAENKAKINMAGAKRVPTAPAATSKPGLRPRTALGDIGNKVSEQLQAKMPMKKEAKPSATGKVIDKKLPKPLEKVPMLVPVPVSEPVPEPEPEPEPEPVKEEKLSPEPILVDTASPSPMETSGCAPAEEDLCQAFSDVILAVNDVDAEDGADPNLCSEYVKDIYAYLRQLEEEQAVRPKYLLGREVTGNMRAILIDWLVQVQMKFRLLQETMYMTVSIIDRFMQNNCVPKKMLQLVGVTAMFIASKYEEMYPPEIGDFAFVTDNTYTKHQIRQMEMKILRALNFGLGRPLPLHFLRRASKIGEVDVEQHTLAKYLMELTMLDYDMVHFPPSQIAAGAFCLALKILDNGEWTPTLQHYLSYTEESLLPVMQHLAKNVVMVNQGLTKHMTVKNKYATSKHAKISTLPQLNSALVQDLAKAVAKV
melting point [°C],IC50 (Cdk5/p25) [nM],IC50 (cdk4/D) [nM],IC50 (cdk2/cyclinA; cdk2/A IC50) [nM],IC50 (cdc2/cyclinB) [nM],IC50 (cdk2/cyclinE; cdk2/E IC50) [nM],Compound,IC50 (cdk2/cyclinA; read-out: cdk2/A IC50) [nM],IC50 (cdc2/cyclinB; read-out: cdk1/B IC50) [nM],IC50 (cdk2/cyclinE; read-out: cdk2/E IC50) [nM]
118 to 119,,,,,,"CC(C)n1c(=O)ccc2cnc(Nc3ccc(OCCN4CCOCC4)cc3)nc21 [Example 141, 8-Isopropyl-2-[4-(2-morpholin-4-yl-ethoxy)-phenylamino]-8H-pyrido[2,3-d]pyrimidin-7-one]",,,
148 to 150,,,,,,"CN1CCN(c2ccc(Nc3ncc4ccc(=O)n(CCCOCc5ccccc5)c4n3)cc2)CC1 [Example 115, 8-(3-Benzyloxy-propyl)-2-[4-(4-methyl-piperazin-1-yl)-phenylamino]-8H-pyrido[2,3-d]pyrimidin-7-one]",,,
165,,,,,,"COc1ccc(CNc2ncc3ccc(=O)n(C4CCCCC4)c3n2)cc1 [Example 225, 8-Cyclohexyl-2-(4-methoxy-benzylamino)-8H-pyrido[2,3-d]pyrimidin-7-one]",,,
155 to 157,,,,,,"O=c1ccc2cnc(Nc3ccc(N4CCCC(CN5CCOCC5)C4)cc3)nc2n1C1CC2CCC1C2 (centres unmarked) [Example 263, 8-Bicyclo[2.2.1]hept-2-yl-2-[4-(3-morpholin-4-ylmethyl-piperidin-1-yl)-phenylamino]-8H-pyrido[2,3-d]pyrimidin-7-one]",,,
70 to 72,,,,,,"CCN(CC)CCOc1ccc(Nc2ncc3ccc(=O)n(CCCOCc4ccccc4)c3n2)cc1 [Example 116, 8-(3-Benzyloxy-propyl)-2-[4-(2-diethylamino-ethoxy)-phenylamino]-8H-pyrido[2,3-d]pyrimidin-7-one]",,,
195 to 196,,,,,,"CC(C)n1c(=O)ccc2cnc(Nc3ccc(N4CCC(CCCN5CCOCC5)CC4)cc3)nc21 [Example 260, 8-Isopropyl-2-{4-[4-(3-morpholin-4-yl-propyl)-piperidin-1-yl]-phenylamino}-8H-pyrido[2,3-d]pyrimidin-7-one]",,,
178 to 179,,,,,,"O=c1ccc2cnc(Nc3ccc(N4CCCC(O)C4)cc3)nc2n1C1CCCC1 (centres unmarked) [Example 206, 8-Cyclopentyl-2-[4-(3-hydroxy-piperidin-1-yl)-phenylamino]-8H-pyrido[2,3-d]pyrimidin-7-one]",,,
237 to 253,,,,,,"Cn1c(=O)ccc2cnc(N)nc21 [Example 62, 2-Amino-8-methyl-8H-pyrido[2,3-d]pyrimidin-7-one]",,,
194 to 195,,,,,,"CCNc1ncc2ccc(=O)n(C)c2n1 [Example 65, 2-Ethylamino-8-methyl-8H-pyrido[2,3-d]pyrimidin-7-one]",,,
223 to 224,,,,,,"O=c1ccc2cnc(Nc3ccc(N4CCC(CCN5CCOCC5)CC4)cc3)nc2n1C1CC2CCC1C2 (centres unmarked) [Example 259, 8-Bicyclo[2.2.1]hept-2-yl-2-[4-[4-(2-morpholin-4-yl-ethyl)-piperidin-1-yl]-phenylamino]-8H-pyrido[2,3-d]pyrimidin-7-one]",,,
156 to 157,,,,,,"O=c1ccc2cnc(Nc3ccc(N4CCCC(CCCN5CCOCC5)C4)cc3)nc2n1C1CC2CCC1C2 (centres unmarked) [Example 262, 8-Bicyclo[2.2.1]hept-2-yl-2-{4-[3-(3-morpholin-4-yl-propyl)-piperidin-1-yl]-phenylamino}-8H-pyrido[2,3-d]pyrimidin-7-one]",,,
160 to 162,,,,,,"Cn1c(=O)ccc2cnc(NCc3ccccc3)nc21 [Example 63, 2-Benzylamino-8-methyl-8H-pyrido[2,3-d]pyrimidin-7-one]",,,
,88,85,160,140,200,"CCC(CC)n1c(=O)ccc2cnc(Nc3ccc(C(F)(F)F)cc3)nc21 [Example 526, 8-(1-Ethyl-propyl)-2-(4-trifluoromethyl-phenylamino)-8H-pyrido[2,3-d]pyrimidin-7-one]",,,
,131,380,1180,275,400,"CCCn1c(=O)ccc2cnc(Nc3ccc(C)c(F)c3)nc21 [Example 376, 2-(3-Fluoro-4-methyl-phenylamino)-8-propyl-8H-pyrido[2,3-d]pyrimidin-7-one]",,,
,87.5,240,255,200,60.3,"CCCCn1c(=O)ccc2cnc(Nc3ccccc3)nc21 [Example 364, 8-Butyl-2-phenylamino-8H-pyrido[2,3-d]pyrimidin-7-one]",,,
,29,310,450,61,260,"CCCn1c(=O)ccc2cnc(Nc3cc(C)cc(C)c3)nc21 [Example 346, 2-(3,5-Dimethyl-phenylamino)-8-propyl-8H-pyrido[2,3-d]pyrimidin-7-one]",,,
,32,230,148,169,152,"O=c1[nH]c2cc(Nc3ncc4ccc(=O)n(C5CCCC5)c4n3)ccc2o1 [Example 554, 8-Cyclopentyl-2-(2-oxo-2,3-dihydro-benzoxazol-5-ylamino)-8H-pyrido[2,3-d]pyrimidin-7-one]",,,
,695,905,2700,960,1370,"O=c1ccc2cnc(Nc3ccc4[nH]ccc4c3)nc2n1CC(F)(F)F [Example 593, 2-(1H-Indol-5-ylamino)-8-(2,2,2-trifluoro-ethyl)-8H-pyrido[2,3-d]pyrimidin-7-one]",,,
,50.5,110,170,98.5,463,"CCC(C)n1c(=O)ccc2cnc(Nc3ccc(OC)cc3)nc21 (centres unmarked) [Example 455, 8-sec-Butyl-2-(4-methoxy-phenylamino)-8H-pyrido[2,3-d]pyrimidin-7-one]",,,
,39,560,860,230,120,"CC(C)n1c(=O)ccc2cnc(Nc3cc(Cl)cc(Cl)c3)nc21 [Example 429, 2-(3,5-Dichloro-phenylamino)-8-isopropyl-8H-pyrido[2,3-d]pyrimidin-7-one]",,,
,64.5,113,265,140,130,"CCC(C)n1c(=O)ccc2cnc(Nc3ccc(NC(=O)OC(C)(C)C)cc3)nc21 (centres unmarked) [Example 450, [4-(8-sec-Butyl-7-oxo-7,8-dihydro-pyrido[2,3-d]pyrimidin-2-ylamino)-phenyl]-carbamic acid tert-butyl ester]",,,
,61,290,470,410,510,"CCCn1c(=O)ccc2cnc(Nc3ccc4c(c3)C(C)C(C)N4)nc21 (centres unmarked) [Example 356, 2-(2,3-Dimethyl-2,3-dihydro-1H-indol-5-ylamino)-8-propyl-8H-pyrido[2,3-d]pyrimidin-7-one]",,,
,108,285,160,128,80,"CCCCn1c(=O)ccc2cnc(Nc3ccc(F)cc3)nc21 [Example 387, 8-Butyl-2-(4-fluoro-phenylamino)-8H-pyrido[2,3-d]pyrimidin-7-one]",,,
,76,250,160,480,230,"CC(C)n1c(=O)ccc2cnc(Nc3ccc(C#N)cc3)nc21 [Example 433, 4-(8-Isopropyl-7-oxo-7,8-dihydro-pyrido[2,3-d]pyrimidin-2-ylamino)-benzonitrile]",,,
,20,87,140,58,25,"CCCCn1c(=O)ccc2cnc(Nc3cccc(S(N)(=O)=O)c3)nc21 [Example 402, 3-(8-Butyl-7-oxo-7,8-dihydro-pyrido[2,3-d]pyrimidin-2-ylamino)-benzenesulfonamide]",,,
,160,200,440,360,81,"O=c1ccc2cnc(Nc3ccc4c(c3)CCC4)nc2n1CC1CC1 [Example 587, 8-Cyclopropylmethyl-2-(indan-5-ylamino)-8H-pyrido[2,3-d]pyrimidin-7-one]",,,
,255,855,615,445,187,"O=c1ccc2cnc(Nc3ccc(O)cc3F)nc2n1CC1CC1 [Example 566, 8-Cyclopropylmethyl-2-(2-fluoro-4-hydroxy-phenylamino)-8H-pyrido[2,3-d]pyrimidin-7-one]",,,
,38.5,51,155,165,91,"CC(=O)Nc1ccc(Nc2ncc3ccc(=O)n(C(C)C)c3n2)cc1 [Example 414, N-[4-(8-Isopropyl-7-oxo-7,8-dihydro-pyrido[2,3-d]pyrimidin-2-ylamino)-phenyl]-acetamide]",,,
,106,1550,855,159,161,"CCCn1c(=O)ccc2cnc(Nc3cc(Cl)cc(Cl)c3)nc21 [Example 319, 2-(3,5-Dichloro-phenylamino)-8-propyl-8H-pyrido[2,3-d]pyrimidin-7-one]",,,
,25,55,310,180,140,"Cc1ccc(Nc2ncc3ccc(=O)n(C4CCCC4)c3n2)cc1Cl [Example 545, 2-(3-Chloro-4-methyl-phenylamino)-8-cyclopentyl-8H-pyrido[2,3-d]pyrimidin-7-one]",,,

Compound,melting point [°C],IC50 (Cdk5/p25) [nM],IC50 (cdk4/D) [nM],IC50 (cdk2/cyclinA; cdk2/A IC50) [nM],IC50 (cdc2/cyclinB) [nM],IC50 (cdk2/cyclinE; cdk2/E IC50) [nM],IC50 (cdk2/cyclinA; read-out: cdk2/A IC50) [nM],IC50 (cdc2/cyclinB; read-out: cdk1/B IC50) [nM],IC50 (cdk2/cyclinE; read-out: cdk2/E IC50) [nM]
"8-Cyclopentyl-2-(2,4,6-trifluoro-phenylamino)-8H-pyrido[2,3-d]pyrimidin-7-one [Example 473]",,67,510,,,,330,400,470
